Assay results reported in ChEMBL document CHEMBL4806966, “Methods for treating centronuclear myopathy” (2020).

Assays:
[1] = target: T1, Phosphatidylinositol 4-phosphate 3-kinase C2 domain-containing subunit alpha (Homo sapiens, UniProt O00443); assay: Inhibition of human PIK3C2A using phosphatidylinositol as substrate and 10 uM ATP after 1 hr by TR-FRET based Adapta universal kinase assay
[2] = target: T1, Phosphatidylinositol 4-phosphate 3-kinase C2 domain-containing subunit alpha; assay: Inhibition of human PIK3C2A using phosphatidylinositol as substrate at 20000 nM after 1 hr by TR-FRET based Adapta universal kinase assay relative to control
[3] = target: T1, Phosphatidylinositol 4-phosphate 3-kinase C2 domain-containing subunit alpha; assay: Inhibition of human PIK3C2A using phosphatidylinositol as substrate at 6667 nM after 1 hr by TR-FRET based Adapta universal kinase assay relative to control
[4] = target: T1, Phosphatidylinositol 4-phosphate 3-kinase C2 domain-containing subunit alpha; assay: Inhibition of human PIK3C2A using phosphatidylinositol as substrate at 2222 nM after 1 hr by TR-FRET based Adapta universal kinase assay relative to control
[5] = target: T1, Phosphatidylinositol 4-phosphate 3-kinase C2 domain-containing subunit alpha; assay: Inhibition of human PIK3C2A using phosphatidylinositol as substrate at 741 nM after 1 hr by TR-FRET based Adapta universal kinase assay relative to control
[6] = target: T1, Phosphatidylinositol 4-phosphate 3-kinase C2 domain-containing subunit alpha; assay: Inhibition of human PIK3C2A using phosphatidylinositol as substrate at 247 nM after 1 hr by TR-FRET based Adapta universal kinase assay relative to control
[7] = target: T1, Phosphatidylinositol 4-phosphate 3-kinase C2 domain-containing subunit alpha; assay: Inhibition of human PIK3C2A using phosphatidylinositol as substrate at 82 nM after 1 hr by TR-FRET based Adapta universal kinase assay relative to control
[8] = target: T1, Phosphatidylinositol 4-phosphate 3-kinase C2 domain-containing subunit alpha; assay: Inhibition of human PIK3C2A using phosphatidylinositol as substrate at 27.3 nM after 1 hr by TR-FRET based Adapta universal kinase assay relative to control
[9] = target: T1, Phosphatidylinositol 4-phosphate 3-kinase C2 domain-containing subunit alpha; assay: Inhibition of human PIK3C2A using phosphatidylinositol as substrate at 9.1 nM after 1 hr by TR-FRET based Adapta universal kinase assay relative to control
[10] = target: T1, Phosphatidylinositol 4-phosphate 3-kinase C2 domain-containing subunit alpha; assay: Inhibition of human PIK3C2A using phosphatidylinositol as substrate at 3.03 nM after 1 hr by TR-FRET based Adapta universal kinase assay relative to control
[11] = target: Phosphatidylinositol 4-phosphate 3-kinase C2 domain-containing subunit beta (Homo sapiens) (UniProt O00750); assay: Inhibition of human PIK3C2B using phosphatidylinositol as substrate at 1000 nM after 1 hr by TR-FRET based Adapta universal kinase assay
Phosphatidylinositol 4-phosphate 3-kinase C2 domain-containing subunit beta (Homo sapiens), sequence (O00750 whole entry, the tested form may be a part): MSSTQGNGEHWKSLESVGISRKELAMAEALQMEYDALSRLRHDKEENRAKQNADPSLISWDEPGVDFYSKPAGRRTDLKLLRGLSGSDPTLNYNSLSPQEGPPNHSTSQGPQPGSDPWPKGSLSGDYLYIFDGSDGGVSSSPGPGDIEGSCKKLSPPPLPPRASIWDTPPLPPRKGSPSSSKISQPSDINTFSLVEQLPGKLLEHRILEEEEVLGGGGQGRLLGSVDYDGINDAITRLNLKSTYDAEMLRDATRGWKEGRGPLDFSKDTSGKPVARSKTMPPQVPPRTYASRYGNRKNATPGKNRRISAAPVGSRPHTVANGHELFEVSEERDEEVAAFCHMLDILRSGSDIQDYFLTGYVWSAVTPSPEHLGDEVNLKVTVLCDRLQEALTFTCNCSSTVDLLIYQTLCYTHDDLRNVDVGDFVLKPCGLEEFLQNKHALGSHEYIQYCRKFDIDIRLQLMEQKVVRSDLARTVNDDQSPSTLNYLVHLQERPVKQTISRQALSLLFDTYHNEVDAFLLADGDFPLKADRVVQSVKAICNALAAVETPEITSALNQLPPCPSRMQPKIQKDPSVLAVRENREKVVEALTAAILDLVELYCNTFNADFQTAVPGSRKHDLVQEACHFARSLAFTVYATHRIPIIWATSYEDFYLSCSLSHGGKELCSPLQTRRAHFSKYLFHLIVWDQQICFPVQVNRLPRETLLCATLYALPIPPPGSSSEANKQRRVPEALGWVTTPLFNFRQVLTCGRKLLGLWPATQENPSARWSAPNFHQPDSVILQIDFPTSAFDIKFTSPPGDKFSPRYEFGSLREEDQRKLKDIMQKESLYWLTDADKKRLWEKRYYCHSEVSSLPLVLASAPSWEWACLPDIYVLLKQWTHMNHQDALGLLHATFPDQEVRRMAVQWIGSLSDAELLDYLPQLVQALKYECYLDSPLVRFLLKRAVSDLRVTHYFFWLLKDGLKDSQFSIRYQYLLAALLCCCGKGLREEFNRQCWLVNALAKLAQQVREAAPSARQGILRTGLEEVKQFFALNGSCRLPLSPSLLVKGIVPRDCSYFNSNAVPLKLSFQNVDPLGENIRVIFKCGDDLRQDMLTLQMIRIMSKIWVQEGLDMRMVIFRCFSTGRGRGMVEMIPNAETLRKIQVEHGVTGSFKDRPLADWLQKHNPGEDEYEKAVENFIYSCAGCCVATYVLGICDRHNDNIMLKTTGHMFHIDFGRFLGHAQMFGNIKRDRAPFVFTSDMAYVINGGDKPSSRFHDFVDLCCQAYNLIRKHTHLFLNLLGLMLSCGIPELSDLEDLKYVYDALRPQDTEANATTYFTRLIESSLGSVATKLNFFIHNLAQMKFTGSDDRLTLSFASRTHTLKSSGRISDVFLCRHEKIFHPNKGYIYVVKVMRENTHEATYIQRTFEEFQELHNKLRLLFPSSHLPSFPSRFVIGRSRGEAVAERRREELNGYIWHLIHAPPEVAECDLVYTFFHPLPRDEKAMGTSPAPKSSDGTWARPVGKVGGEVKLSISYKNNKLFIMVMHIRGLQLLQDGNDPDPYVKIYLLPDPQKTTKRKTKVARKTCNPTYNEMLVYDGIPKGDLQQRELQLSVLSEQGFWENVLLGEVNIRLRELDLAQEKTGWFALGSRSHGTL

[12] = target: Phosphatidylinositol 4-phosphate 3-kinase C2 domain-containing subunit beta (Homo sapiens) (UniProt O00750); assay: Inhibition of human PIK3C2B using phosphatidylinositol as substrate at 333 nM after 1 hr by TR-FRET based Adapta universal kinase assay
[13] = target: Phosphatidylinositol 4-phosphate 3-kinase C2 domain-containing subunit beta (Homo sapiens) (UniProt O00750); assay: Inhibition of human PIK3C2B using phosphatidylinositol as substrate at 111 nM after 1 hr by TR-FRET based Adapta universal kinase assay
[14] = target: Phosphatidylinositol 4-phosphate 3-kinase C2 domain-containing subunit beta (Homo sapiens) (UniProt O00750); assay: Inhibition of human PIK3C2B using phosphatidylinositol as substrate at 37 nM after 1 hr by TR-FRET based Adapta universal kinase assay
[15] = target: Phosphatidylinositol 4-phosphate 3-kinase C2 domain-containing subunit beta (Homo sapiens) (UniProt O00750); assay: Inhibition of human PIK3C2B using phosphatidylinositol as substrate at 12.3 nM after 1 hr by TR-FRET based Adapta universal kinase assay
[16] = target: Phosphatidylinositol 4-phosphate 3-kinase C2 domain-containing subunit beta (Homo sapiens) (UniProt O00750); assay: Inhibition of human PIK3C2B using phosphatidylinositol as substrate at 4.1 nM after 1 hr by TR-FRET based Adapta universal kinase assay
[17] = target: Phosphatidylinositol 4-phosphate 3-kinase C2 domain-containing subunit beta (Homo sapiens) (UniProt O00750); assay: Inhibition of human PIK3C2B using phosphatidylinositol as substrate at 1.37 nM after 1 hr by TR-FRET based Adapta universal kinase assay
[18] = target: Phosphatidylinositol 4-phosphate 3-kinase C2 domain-containing subunit beta (Homo sapiens) (UniProt O00750); assay: Inhibition of human PIK3C2B using phosphatidylinositol as substrate at 0.46 nM after 1 hr by TR-FRET based Adapta universal kinase assay
[19] = target: Phosphatidylinositol 4-phosphate 3-kinase C2 domain-containing subunit beta (Homo sapiens) (UniProt O00750); assay: Inhibition of human PIK3C2B using phosphatidylinositol as substrate at 0.153 nM after 1 hr by TR-FRET based Adapta universal kinase assay
[20] = target: Phosphatidylinositol 4-phosphate 3-kinase C2 domain-containing subunit beta (Homo sapiens) (UniProt O00750); assay: Inhibition of human PIK3C2B using phosphatidylinositol as substrate at 0.051 nM after 1 hr by TR-FRET based Adapta universal kinase assay
Homo sapiens [21] = species on record: Homo sapiens; assay: Selectivity index, ratio of IC50 for human PIK3C2A to IC50 for human PIK3C2B
[22] = target: Phosphatidylinositol 4,5-bisphosphate 3-kinase catalytic subunit beta isoform (Homo sapiens, UniProt P42338); assay: Inhibition of PI3Kbeta (unknown origin)
Phosphatidylinositol 4,5-bisphosphate 3-kinase catalytic subunit beta isoform, sequence (P42338 whole entry, canonical isoform): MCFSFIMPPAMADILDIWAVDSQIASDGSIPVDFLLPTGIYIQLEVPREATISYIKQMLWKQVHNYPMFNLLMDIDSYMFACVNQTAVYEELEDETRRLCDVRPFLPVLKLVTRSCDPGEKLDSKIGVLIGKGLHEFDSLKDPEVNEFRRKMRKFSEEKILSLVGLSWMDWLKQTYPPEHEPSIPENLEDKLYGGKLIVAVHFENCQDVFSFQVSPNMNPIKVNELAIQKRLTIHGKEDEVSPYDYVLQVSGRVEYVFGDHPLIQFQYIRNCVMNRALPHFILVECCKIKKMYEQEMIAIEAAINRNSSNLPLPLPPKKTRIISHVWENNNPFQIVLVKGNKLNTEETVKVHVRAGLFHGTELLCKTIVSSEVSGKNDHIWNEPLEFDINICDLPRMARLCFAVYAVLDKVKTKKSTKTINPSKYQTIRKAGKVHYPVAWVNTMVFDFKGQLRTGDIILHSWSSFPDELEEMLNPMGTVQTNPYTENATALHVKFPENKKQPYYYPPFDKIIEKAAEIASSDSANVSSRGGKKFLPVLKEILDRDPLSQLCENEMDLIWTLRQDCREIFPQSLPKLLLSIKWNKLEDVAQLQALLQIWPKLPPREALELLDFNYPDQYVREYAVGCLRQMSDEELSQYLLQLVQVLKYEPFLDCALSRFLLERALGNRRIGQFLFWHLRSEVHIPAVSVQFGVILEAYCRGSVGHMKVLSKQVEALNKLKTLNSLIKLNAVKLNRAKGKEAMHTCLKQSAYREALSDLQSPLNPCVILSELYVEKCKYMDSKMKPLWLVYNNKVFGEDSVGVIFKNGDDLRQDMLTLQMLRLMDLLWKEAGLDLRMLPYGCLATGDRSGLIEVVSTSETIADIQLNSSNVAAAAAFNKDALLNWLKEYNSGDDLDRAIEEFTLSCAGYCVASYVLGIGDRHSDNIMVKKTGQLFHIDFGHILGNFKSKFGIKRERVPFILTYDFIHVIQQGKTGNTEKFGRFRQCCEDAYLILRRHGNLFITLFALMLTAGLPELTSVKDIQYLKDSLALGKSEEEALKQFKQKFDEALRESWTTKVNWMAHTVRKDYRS

Homo sapiens [23] = species on record: Homo sapiens; assay: Selectivity index, ratio of IC50 for human PIK3C2B to IC50 for PI3Kbeta (unknown origin)

T1 sequence (O00443 whole entry, the tested form may be a part): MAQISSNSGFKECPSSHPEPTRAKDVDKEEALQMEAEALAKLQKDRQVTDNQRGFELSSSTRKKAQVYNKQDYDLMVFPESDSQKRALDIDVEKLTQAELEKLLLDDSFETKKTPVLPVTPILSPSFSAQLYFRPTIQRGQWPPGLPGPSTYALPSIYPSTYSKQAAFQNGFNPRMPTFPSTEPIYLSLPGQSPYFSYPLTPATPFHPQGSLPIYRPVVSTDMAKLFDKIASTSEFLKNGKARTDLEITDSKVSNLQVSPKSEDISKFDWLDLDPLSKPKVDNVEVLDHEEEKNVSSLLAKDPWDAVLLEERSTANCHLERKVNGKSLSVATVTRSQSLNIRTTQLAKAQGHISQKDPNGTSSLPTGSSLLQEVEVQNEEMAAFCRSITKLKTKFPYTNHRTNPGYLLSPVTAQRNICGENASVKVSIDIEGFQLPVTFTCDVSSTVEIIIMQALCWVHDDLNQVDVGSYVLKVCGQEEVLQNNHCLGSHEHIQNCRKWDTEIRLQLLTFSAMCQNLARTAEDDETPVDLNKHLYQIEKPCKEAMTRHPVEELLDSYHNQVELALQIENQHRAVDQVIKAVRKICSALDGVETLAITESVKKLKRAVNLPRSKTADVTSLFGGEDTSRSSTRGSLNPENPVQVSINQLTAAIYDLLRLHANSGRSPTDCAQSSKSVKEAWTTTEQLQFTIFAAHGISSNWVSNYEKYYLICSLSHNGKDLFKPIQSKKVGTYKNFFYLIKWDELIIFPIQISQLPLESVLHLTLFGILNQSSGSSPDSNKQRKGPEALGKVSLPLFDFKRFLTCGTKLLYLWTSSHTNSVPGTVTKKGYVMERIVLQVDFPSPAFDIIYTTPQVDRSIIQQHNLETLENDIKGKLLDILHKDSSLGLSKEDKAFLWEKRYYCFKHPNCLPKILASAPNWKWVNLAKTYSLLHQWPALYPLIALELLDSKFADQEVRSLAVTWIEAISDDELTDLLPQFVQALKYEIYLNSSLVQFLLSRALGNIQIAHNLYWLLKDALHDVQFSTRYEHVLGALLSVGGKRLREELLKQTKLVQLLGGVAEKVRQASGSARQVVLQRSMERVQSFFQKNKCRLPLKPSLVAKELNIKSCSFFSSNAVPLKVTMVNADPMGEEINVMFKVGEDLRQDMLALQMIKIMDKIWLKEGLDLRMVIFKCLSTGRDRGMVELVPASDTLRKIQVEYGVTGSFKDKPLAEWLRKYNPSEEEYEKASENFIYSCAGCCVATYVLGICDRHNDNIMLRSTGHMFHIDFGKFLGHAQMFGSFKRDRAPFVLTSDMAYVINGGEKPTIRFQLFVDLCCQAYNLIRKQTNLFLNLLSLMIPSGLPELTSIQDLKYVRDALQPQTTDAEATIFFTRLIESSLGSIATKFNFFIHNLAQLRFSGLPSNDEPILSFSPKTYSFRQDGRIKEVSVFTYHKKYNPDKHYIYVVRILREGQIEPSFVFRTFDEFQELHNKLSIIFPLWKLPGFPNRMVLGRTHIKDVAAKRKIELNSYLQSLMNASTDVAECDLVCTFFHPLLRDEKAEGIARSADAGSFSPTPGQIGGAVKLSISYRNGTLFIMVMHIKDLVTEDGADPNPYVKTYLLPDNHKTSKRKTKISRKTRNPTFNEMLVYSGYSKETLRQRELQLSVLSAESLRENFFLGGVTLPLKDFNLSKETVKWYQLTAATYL

CN(C)C(=O)c1ccc2c(c1)c(C[C@H]1COCCN1c1nc3c(s1)C(=O)NC(C)(C)C3)cn2C
IC50 [1]: 9.57 µM
inhibition [2]: 78%
inhibition [3]: 46%
inhibition [4]: 36%
inhibition [5]: 17%
inhibition [6]: 6%
inhibition [7]: 0%
inhibition [8]: -4%
inhibition [9]: -3%
inhibition [10]: -3%
inhibition [11]: 93%
inhibition [12]: 93%
inhibition [13]: 90%
inhibition [14]: 74%
inhibition [15]: 49%
inhibition [16]: 27%
inhibition [17]: 21%
inhibition [18]: 10%
inhibition [19]: -3%
inhibition [20]: 16%
Ratio IC50 (Homo sapiens [21]): 449

Cc1c(Cn2c(C)nc(=O)c3sc(N4CCOCC4)nc32)cccc1C(F)(F)F
IC50 [22]: 0.016 µM
Ratio IC50 (Homo sapiens [23]): 6
